Laboratory results as given in patent US20230190723A1 (MEREO BIOPHARMA 4 LIMITED, priority 2020, published 2023).
Blank lines part the entries; values can stand above or below the compound they belong to.

Columns and labels:
NE = target: T1, NE (Homo sapiens, UniProt P08246); assay: enzyme kinetics: SlaaapN cleavage by NE in the presence of inhibitor; assay type: biochemical
T1 construct: purchased Athens Research and Technology, US
T1 sequence (P08246 30-267): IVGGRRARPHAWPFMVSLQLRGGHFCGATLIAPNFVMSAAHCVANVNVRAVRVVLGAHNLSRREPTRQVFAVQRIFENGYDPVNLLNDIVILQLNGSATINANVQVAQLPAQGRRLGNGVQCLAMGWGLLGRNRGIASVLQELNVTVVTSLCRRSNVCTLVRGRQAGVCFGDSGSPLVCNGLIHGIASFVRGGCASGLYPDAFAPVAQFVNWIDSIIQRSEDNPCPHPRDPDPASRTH
Procedure: Results were determined computationally using Prism software.

neutrophil elastase = target: T2, neutrophil elastase (Homo sapiens, UniProt P08246); assay: proteinase/anti-proteinase imbalance model (fMLP-stimulated isolated neutrophils with fibrinogen, NE activity footprint Aα-Val360); assay type: cell-based; conditions: for NE activity remaining, % of untreated (Aα-Val360): no inhibitor = 100%
T2 construct: Neutrophils from healthy young volunteers were isolated; endogenous in cells; host or cells: neutrophils isolated from blood of healthy young volunteers, stimulated with fMLP in the presence of fibrinogen
T2 sequence (P08246 30-267): T1 sequence (P08246 30-267)

neutrophils = assay: validation of the Aα-Val360 assay with stimulated neutrophils; assay type: cell-based, human; conditions: 15 minutes
Procedure: Baseline corrected Aα-Val^360 levels following stimulation of neutrophils at 2.5 million/ml with Cal at 2.4/2.1/1.8/1.5/1.2/0.9/0.6/0.3 μM with fibrinogen (550 nM) for 60 minutes; n=3.
Change in Aα-Val^360 levels following stimulation of neutrophils at 2.5 million/ml with fMLP at 0, 0.1,1,10 μM fMLP with fibrinogen (550 nM) for 15 minutes; n=3.
To determine maximal stimulation a potent stimulator of neutrophils, Cal, [11] was titrated out from 0-2.4 μM and specific proteinase fibrinogen-cleavage product measured.
To assess a more physiological stimulus, neutrophils were then incubated with N-formylmethionine-leucyl-phenylalanine (fMLP).

[1] = target: Porcine Pancreatic Elastase (Sus scrofa, UniProt P00772); assay: enzyme kinetics: SlaaapN cleavage by PPE after incubation with AAT; assay type: biochemical
Porcine Pancreatic Elastase, sequence (P00772 27-266): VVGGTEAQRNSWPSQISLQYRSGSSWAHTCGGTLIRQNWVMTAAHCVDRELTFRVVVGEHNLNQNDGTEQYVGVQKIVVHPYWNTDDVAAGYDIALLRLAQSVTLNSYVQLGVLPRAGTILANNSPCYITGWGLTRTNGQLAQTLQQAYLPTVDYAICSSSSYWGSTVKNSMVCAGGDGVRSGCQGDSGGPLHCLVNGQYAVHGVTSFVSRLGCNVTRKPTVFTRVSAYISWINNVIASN

[2] = simple linear regression, control fixed at 100%

molar ratio of inhibitor required to fully inhibit NE (inhibitor:NE, x:1) (NE; SlaaapN substrate, by extrapolation): 0.87 | Slope, best-fit value (alvelestat:NE ratio vs NE enzymatic activity, FIG. 7) (NE; [2]): −114.4 | X-intercept, best-fit value (alvelestat:NE ratio vs NE enzymatic activity, FIG. 7) (NE; [2]): 0.8742 | alvelestat activity against NE (NE; titrated against elastase of known concentration and activity, Prism): 88% | NE activity remaining, % of untreated (Aα-Val360) (neutrophil elastase; alvelestat 10 nM): 60.1% | NE activity remaining, % of untreated (Aα-Val360) (neutrophil elastase; alvelestat 1000 nM): 27.4% | inhibition at 1 µM (neutrophil elastase; read-out: inhibition (suppression) of NE activity): 72.6%
Compound: Cc1c(-c2ccnn2C)cc(C(=O)NCc2ccc(S(C)(=O)=O)cn2)c(=O)n1-c1cccc(C(F)(F)F)c1 [alvelestat, 6-methyl-5-(1-methyl-1H-pyrazol-5-yl)-N-{[5-(methylsulfonyl)pyridin-2-yl]methyl}-2-oxo-1-[3-(trifluoromethyl)phenyl]-1,2-dihydropyridine-3-carboxamide]

Compound: CSCC[C@H](NC=O)C(=O)N[C@@H](CC(C)C)C(=O)N[C@@H](Cc1ccccc1)C(=O)O [fMLP, N-formyl-L-methionyl-L-leucyl-phenylalanine]
increase of NE activity (Aα-Val360) (neutrophils; 0.1 μM fMLP, neutrophils 2.5 million/ml, fibrinogen 550 nM): 11.4 nM | further increase of NE activity (Aα-Val360) (neutrophils; 1 μM fMLP, relative to 0.1 μM): 7.3 nM | increase of NE activity (Aα-Val360) (neutrophils; 10 μM fMLP, the values are: Aα-Val360 level (NE activity)): 35 nM

molar concentration of AAT required to neutralise 1 Mol active PPE ([1]; SlaaapN substrate): 1.208 mol | functional AAT activity ([1]; calculated from 1.208:1 AAT:PPE): 83%
Compound: AAT: protective anti-proteinase alpha-1 antitrypsin, physiological inhibitor of neutrophil serine proteinases; purified batch from Athens Research & Technology
